target: T1, USP25 (USP25-His6, Boston Biochem E-546) (Homo sapiens, UniProt Q9UHP3); experiment: Ubiquitin-Rhodamine 110 Assay for USP25 Activity, Example A-3; type: biochemical; conditions: Ubiquitin-Rhodamine 110 assay, Example A-3; read-out: USP25 A-3 IC50 range
T1 construct: His6 (C); purchased Boston Biochem E-546
T1 sequence (Q9UHP3 1-1055): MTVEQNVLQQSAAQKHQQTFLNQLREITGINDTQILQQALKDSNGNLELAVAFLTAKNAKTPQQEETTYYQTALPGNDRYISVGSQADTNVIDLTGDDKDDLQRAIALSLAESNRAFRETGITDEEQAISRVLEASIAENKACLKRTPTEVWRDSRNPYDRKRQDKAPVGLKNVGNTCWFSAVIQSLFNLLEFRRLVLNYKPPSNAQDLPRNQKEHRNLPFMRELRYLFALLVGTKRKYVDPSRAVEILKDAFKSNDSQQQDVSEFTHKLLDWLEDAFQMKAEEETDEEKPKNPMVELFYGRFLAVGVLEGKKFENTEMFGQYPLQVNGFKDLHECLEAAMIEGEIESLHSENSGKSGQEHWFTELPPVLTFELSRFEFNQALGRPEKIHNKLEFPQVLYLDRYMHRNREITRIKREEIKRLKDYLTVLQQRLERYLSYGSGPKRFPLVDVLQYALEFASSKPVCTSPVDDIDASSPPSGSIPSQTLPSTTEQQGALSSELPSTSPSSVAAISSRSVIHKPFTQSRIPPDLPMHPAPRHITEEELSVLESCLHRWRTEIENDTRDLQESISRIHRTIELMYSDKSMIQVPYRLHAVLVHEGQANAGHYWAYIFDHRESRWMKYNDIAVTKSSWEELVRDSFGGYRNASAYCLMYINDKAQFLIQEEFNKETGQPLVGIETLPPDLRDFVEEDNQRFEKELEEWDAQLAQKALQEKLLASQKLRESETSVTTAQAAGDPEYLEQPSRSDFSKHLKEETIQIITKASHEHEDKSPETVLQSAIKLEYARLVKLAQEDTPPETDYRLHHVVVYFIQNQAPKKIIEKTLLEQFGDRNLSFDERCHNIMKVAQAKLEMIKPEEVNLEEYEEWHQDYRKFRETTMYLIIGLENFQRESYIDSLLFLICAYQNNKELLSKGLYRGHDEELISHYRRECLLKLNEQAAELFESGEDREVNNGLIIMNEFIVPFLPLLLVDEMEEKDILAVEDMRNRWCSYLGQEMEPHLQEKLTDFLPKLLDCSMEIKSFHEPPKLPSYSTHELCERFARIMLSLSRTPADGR
Protocol: Example A-3: Biochemical Assay: Ubiquitin-Rhodamine 110 Assay for USP25 Activity
The assay was performed in a final volume of 9 μL in assay buffer containing 20 mM Tris-HCl (pH 8.0, (1M Tris-HCl, pH 8.0 solution; Corning 46-031-CM)), 3 mM BME (2-Mercaptoethanol; Sigma 63689-25ML-F), 0.03% BGG (0.22 μM filtered, Sigma, G7516-25G), and 0.01% Triton X-100 (Sigma, T9284-10L). Nanoliter quantities of 10-point, 3-fold serial dilution in DMSO was pre-dispensed into 1536 assay plates (Corning, #3724BC) for a final test concentration of 25 μM to 1.3 nM, top to lowest dose, respectively. Enzyme USP25, construct USP25-His6, (Boston Biochem E-546). Concentration and incubation times were optimized for the maximal signal-to-background while maintaining initial velocity conditions at a fixed substrate concentration. The final concentration of the enzyme in the assay was […]. Final substrate (Ub-Rh110; Ubiquitin-Rhodamine 110, R&D Systems #U-555) concentration was 25 nM with [Ub-Rh110]<<Km. 3 μL of 2× enzyme was added to assay plates (pre-stamped with compound) preincubated with […] for 30 minutes and then 3 μL of 2× Ub-Rh110 was added to assay plates. Plates were incubated for 45 minutes at room temperature before addition of 3 μL of stop solution (final concentration of 10 mM citric acid (Sigma, 251275-500G)). Fluorescence was read on the Envision (Excitation at 485 nm and Emission at 535 nm; Perkin Elmer) or on the PheraSTAR (Excitation at 485 nm and Emission at 535 nm; BMG Labtech).
For assay formats Example A-1(a), A-1(b), and A-2, data were reported as percent inhibition compared with control wells based on the following equation: % inh=1−((FLU−AveLow)/(AveHigh−AveLow)) where FLU=measured Fluorescence, AveLow=average Fluorescence of no enzyme control (n=16), and AveHighh=average Fluorescence of DMSO control (n=16). IC50 values were determined by curve fitting of the standard 4 parameter logistic fitting algorithm included in the Activity Base software package: IDBS XE Designer Model 205. Data is fitted using the Levenburg Marquardt algorithm.

Structure (SMILES) | IC50
Cc1ccc2c(N)c(C(=O)N[C@H]3CCc4nc(N5C[C@@H](N)[C@H](C(F)F)C5)ncc4C3)sc2n1 [Example 381, 3-amino-N-[(6S)-2-[(3S,4R)-3-amino-4-(difluoromethyl)pyrrolidin-1-yl]-5,6,7,8-tetrahydroquinazolin-6-yl]-6-methylthieno[2,3-b]pyridine-2-carboxamide] | > 2 µM
Cc1ccc2c(N)c(C(=O)N[C@@H]3CCc4nc(N5C[C@@H](N)[C@H](C(F)F)C5)ncc4C3)sc2n1 [Example 382, 3-amino-N-[(6R)-2-[(3S,4R)-3-amino-4-(difluoromethyl)pyrrolidin-1-yl]-5,6,7,8-tetrahydroquinazolin-6-yl]-6-methylthieno[2,3-b]pyridine-2-carboxamide] | > 2 µM
Cc1ccc2c(N)c(C(=O)N[C@@H]3CCc4nc(N5C[C@H](C(F)F)[C@@H](N)C5)ncc4C3)sc2n1 [Example 383, 3-amino-N-[(6R)-2-[(3R,4S)-3-amino-4-(difluoromethyl)pyrrolidin-1-yl]-5,6,7,8-tetrahydroquinazolin-6-yl]-6-methylthieno[2,3-b]pyridine-2-carboxamide] | > 2 µM
Cc1ccc2c(N)c(C(=O)N[C@H]3CCc4nc(N5C[C@H](CF)[C@@H](N)C5)ccc4C3)sc2n1 [Example 384, 3-amino-N-[(6S)-2-[(3R,4S)-3-amino-4-(fluoromethyl)pyrrolidin-1-yl]-5,6,7,8-tetrahydroquinolin-6-yl]-6-methylthieno[2,3-b]pyridine-2-carboxamide] | 0.2 to 2 µM
Cc1ccc2c(N)c(C(=O)N[C@H]3CCc4nc(N5C[C@@H](CF)[C@H](N)C5)ccc4C3)sc2n1 [Example 385, 3-amino-N-[(6S)-2-[(3S,4R)-3-amino-4-(fluoromethyl)pyrrolidin-1-yl]-5,6,7,8-tetrahydroquinolin-6-yl]-6-methylthieno[2,3-b]pyridine-2-carboxamide] | > 2 µM
Cc1ccc2c(N)c(C(=O)N[C@H]3CCc4nc(N5CC[C@](N)(CO)C5)ccc4C3)sc2n1 [Example 386, 3-amino-N-[(6S)-2-[(3R)-3-amino-3-(hydroxymethyl)pyrrolidin-1-yl]-5,6,7,8-tetrahydroquinolin-6-yl]-6-methylthieno[2,3-b]pyridine-2-carboxamide] | 0.2 to 2 µM
Cc1ccc2c(N)c(C(=O)N[C@H]3CCc4nc(N5CC[C@@](N)(CO)C5)ccc4C3)sc2n1 [Example 387, 3-amino-N-[(6S)-2-[(3S)-3-amino-3-(hydroxymethyl)pyrrolidin-1-yl]-5,6,7,8-tetrahydroquinolin-6-yl]-6-methylthieno[2,3-b]pyridine-2-carboxamide] | > 2 µM
COC[C@@]1(N)CCN(c2ccc3c(n2)CC[C@H](NC(=O)c2sc4nc(C)ccc4c2N)C3)C1 [Example 388, 3-amino-N-[(6S)-2-[(3R)-3-amino-3-(methoxymethyl)pyrrolidin-1-yl]-5,6,7,8-tetrahydroquinolin-6-yl]-6-methylthieno[2,3-b]pyridine-2-carboxamide] | 0.2 to 2 µM
COC[C@]1(N)CCN(c2ccc3c(n2)CC[C@H](NC(=O)c2sc4nc(C)ccc4c2N)C3)C1 [Example 389, 3-amino-N-[(6S)-2-[(3S)-3-amino-3-(methoxymethyl)pyrrolidin-1-yl]-5,6,7,8-tetrahydroquinolin-6-yl]-6-methylthieno[2,3-b]pyridine-2-carboxamide] | 0.2 to 2 µM
Cc1ccc2c(N)c(C(=O)N[C@H]3CCc4nc(N5C[C@@H]6COC[C@]6(N)C5)ccc4C3)sc2n1 [Example 394, N-[(6S)-2-[(3aR,6aS)-3a-amino-hexahydro-1H-furo[3,4-c]pyrrol-5-yl]-5,6,7,8-tetrahydroquinolin-6-yl]-3-amino-6-methylthieno[2,3-b]pyridine-2-carboxamide] | > 2 µM
Cc1ccc2c(N)c(C(=O)N[C@H]3CCc4nc(N5C[C@H]6COC[C@@]6(N)C5)ccc4C3)sc2n1 [Example 395, N-[(6S)-2-[(3aS,6aR)-3a-amino-hexahydro-1H-furo[3,4-c]pyrrol-5-yl]-5,6,7,8-tetrahydroquinolin-6-yl]-3-amino-6-methylthieno[2,3-b]pyridine-2-carboxamide] | 0.2 to 2 µM
Cc1ccc2c(N)c(C(=O)N[C@H]3CCc4nc(N5C[C@H]6COC[C@@H](C5)[C@H]6N)ccc4C3)sc2n1 [Example 396] | 0.2 to 2 µM
Cc1ccc2c(N)c(C(=O)N[C@H]3CCc4nc(N5C[C@H]6COC[C@@H](C5)[C@@H]6N)ccc4C3)sc2n1 [Example 397] | 0.2 to 2 µM
Cc1ccc2c(N)c(C(=O)N[C@H]3CCc4nc(N5CC6(C[C@@H](N)CO6)C5)ccc4C3)sc2n1 [Example 398, 3-amino-N-[(6S)-2-[(7R)-7-amino-5-oxa-2-azaspiro[3.4]octan-2-yl]-5,6,7,8-tetrahydroquinolin-6-yl]-6-methylthieno[2,3-b]pyridine-2-carboxamide] | 0.2 to 2 µM
Cc1ccc2c(N)c(C(=O)N[C@H]3CCc4nc(N5CC6(C[C@H](N)CO6)C5)ccc4C3)sc2n1 [Example 399, 3-amino-N-[(6S)-2-[(7S)-7-amino-5-oxa-2-azaspiro[3.4]octan-2-yl]-5,6,7,8-tetrahydroquinolin-6-yl]-6-methylthieno[2,3-b]pyridine-2-carboxamide] | 0.2 to 2 µM
CCn1ccc2cc(C(=O)N[C@H]3CCc4nc(N5C[C@H](NC)[C@@H](OC)C5)ccc4C3)cnc21 [Example 402, 1-ethyl-N-[(6S)-2-[(3S,4S)-3-methoxy-4-(methylamino)pyrrolidin-1-yl]-5,6,7,8-tetrahydroquinolin-6-yl]-1H-pyrrolo[2,3-b]pyridine-5-carboxamide] | > 2 µM
CCn1ccc2cc(C(=O)N[C@H]3CCc4nc(N5C[C@@H](N)C6(COC6)C5)ccc4C3)cnc21 [Example 404, N-[(6S)-2-[(8S)-8-amino-2-oxa-6-azaspiro[3.4]octan-6-yl]-5,6,7,8-tetrahydroquinolin-6-yl]-1-ethyl-1H-pyrrolo[2,3-b]pyridine-5-carboxamide] | > 2 µM
Cc1ccc2c(N)c(C(=O)N[C@H]3CCc4nc(N5CC[C@@]6(C5)OCC[C@H]6N)ccc4C3)sc2n1 [Example 405, 3-amino-N-[(6S)-2-[(4R,5S)-4-amino-1-oxa-7-azaspiro[4.4]nonan-7-yl]-5,6,7,8-tetrahydroquinolin-6-yl]-6-methylthieno[2,3-b]pyridine-2-carboxamide] | 0.2 to 2 µM
Cc1ccc2c(N)c(C(=O)N[C@H]3CCc4nc(N5CC[C@]6(C5)OCC[C@@H]6N)ccc4C3)sc2n1 [Example 406, 3-amino-N-[(6S)-2-[(4S,5R)-4-amino-1-oxa-7-azaspiro[4.4]nonan-7-yl]-5,6,7,8-tetrahydroquinolin-6-yl]-6-methylthieno[2,3-b]pyridine-2-carboxamide] | > 2 µM
Cc1ccc2c(N)c(C(=O)N[C@H]3CCc4nc(N5CC[C@@]6(C5)OCC[C@@H]6N)ccc4C3)sc2n1 [Example 407, 3-amino-N-[(6S)-2-[(4S,5S)-4-amino-1-oxa-7-azaspiro[4.4]nonan-7-yl]-5,6,7,8-tetrahydroquinolin-6-yl]-6-methylthieno[2,3-b]pyridine-2-carboxamide] | > 2 µM

— patent publication US12162888B2, “Carboxamides as ubiquitin-specific protease inhibitors” (Valo Early Discovery, Inc., priority 2018, dated 2024)
